Publication PMC11249012 (Journal of Medicinal Chemistry, 2024)

Experiments:
[1] = test system: hyperacetylation of tubulin, H3K9 and H3K27; assay: Western blot of tubulin and histone H3 hyperacetylation in 4T1 cells; format: cell-based, mouse; settings: hybrids 10 μM, 6 h
Experimental: (§1) The potential for compounds as HDACi’s can be rapidly tested in cells in culture by monitoring the hyperacetylation of histone H3 and tubulin. H3 acetylation is controlled by multiple class I enzymes, and the class IIb enzyme HDAC6 regulates tubulin acetylation.[36]−[39] […] (Figure 4A).
(§2) Figure 4 Evidence for HDAC inhibition in 4T1 and 4TO7 TNBC cells. Western blots and quantification of triplicate biological replicates analyzing the effects of 1,25D (100 nM), SAHA (100 nM), and hybrids (10 μM) on hyperacetylation of tubulin (A,D), H3K9 (B,E), and H3K27 (C,F) in 4T1 (A–C) and 4TO7 cells (D–F).
After 6 h treatments, 4T1, 4T07, or B16-F10 cells were solubilized in lysis buffer (20 mM Tris, pH 8, 150 mM NaCl, 1% Triton X-100, 3.5 mM SDS, and 13 mM deoxycholic acid), and proteins were separated on a 4–15% Tris/glycine/SDS gel (Bio-Rad). Then, the proteins were transferred to a nitrocellulose membrane, followed by blocking in 5% skim milk in Tris-buffered saline (TBS, 1×) solution. After blocking, the membranes were incubated overnight at 4 °C with the primary antibodies against acetylated tubulin (Sigma-Aldrich—#T7451), tubulin (Sigma-Aldrich—#T9026), acetyl-histone H3(Lys9) (Merck Millipore—#07-352), acetyl-histone H3 (Lys27) (Abcam—#ab4729), total histone H3 (Cell Signaling Technology (CST)—#3638), and GAPDH (Abcam—#ab8245). Then, the membranes were incubated with antimouse (CST—#7076) or antirabbit (CST—#7074) IgG HRP-linked secondary antibodies at recommended concentrations. Finally, signals were detected using Clarity ECL substrates (Bio-Rad) and a ChemiDoc Imaging System. Changes in protein levels were quantified relative to control using Image Lab software (version 6.0.1) after normalization to GAPDH. Western blot experiments were carried out three times.

[2] = test system: hyperacetylation of tubulin, H3K9 and H3K27; assay: Western blot of tubulin and histone H3 hyperacetylation in 4TO7 cells; format: cell-based, mouse; settings: hybrids 10 μM, SAHA 100 nM, 6 h
Experimental: as §1, §2
After 6 h treatments, 4T1, 4T07, or B16-F10 cells were solubilized in lysis buffer (20 mM Tris, pH 8, 150 mM NaCl, 1% Triton X-100, 3.5 mM SDS, and 13 mM deoxycholic acid), and proteins were separated on a 4–15% Tris/glycine/SDS gel (Bio-Rad). Then, the proteins were transferred to a nitrocellulose membrane, followed by blocking in 5% skim milk in Tris-buffered saline (TBS, 1×) solution. […] Finally, signals were detected using Clarity ECL substrates (Bio-Rad) and a ChemiDoc Imaging System. Changes in protein levels were quantified relative to control using Image Lab software (version 6.0.1) after normalization to GAPDH. […]

B16-F10 tumors = assay: B16-F10 melanoma model in vivo; set-up: species or system mouse; settings: 2 doses of 5 mg/kg 24 h apart; also VDR gene; duplicate tumors from two animals
Experimental: We were then interested in comparing the efficacy of ZG compounds and other hybrids in tumor models in vivo. We focused initially on the B16-F10 melanoma which is syngeneic with C57BL/6 mice. The efficacy of ZG-126 in vivo in this model was tested in two experiments. […] In a second experiment, we compared the antitumor efficacy of hybrids at ∼0.5 MTD doses. […] All treatments were well tolerated, and body weights were unaffected (Figure 6C).
(§3) Finally, mice were sacrificed, and lungs of 4T1-bearing mice were removed to evaluate the efficiency of treatments on lung metastases.

4T1 tumors = assay: 4T1 TNBC model in vivo (primary tumor and lung metastases); set-up: species or system mouse; settings: 4T1 model; for #Surface metastases (lung): vehicle 166
Experimental: As 4T1 cells are aggressively metastatic, we can also assess the antimetastatic activity in the same experiment. All treatments were well tolerated, and, as in the B16-F10 model, none induced weight loss or other signs of stress over the course of the experiment (Figure 7A). Treatments reduced the primary tumor burden to varying degrees.
The antimetastatic activity was determined by counting the number of surface lung metastases of duplicate samples using a stereomicroscope. […] This degree of efficacy is remarkable, as in previous experiments, DK-406 reduced the metastatic burden by ∼2-fold.[30]
as §3

in vivo = settings: BALB/c, mouse, ip
HDAC9 = HDAC9 (Homo sapiens, UniProt Q9UKV0); assay: Biochemical assay for HDAC inhibition, HDAC9; settings: concentrations as high as 100 μM
Sequence of HDAC9 (Q9UKV0 whole entry): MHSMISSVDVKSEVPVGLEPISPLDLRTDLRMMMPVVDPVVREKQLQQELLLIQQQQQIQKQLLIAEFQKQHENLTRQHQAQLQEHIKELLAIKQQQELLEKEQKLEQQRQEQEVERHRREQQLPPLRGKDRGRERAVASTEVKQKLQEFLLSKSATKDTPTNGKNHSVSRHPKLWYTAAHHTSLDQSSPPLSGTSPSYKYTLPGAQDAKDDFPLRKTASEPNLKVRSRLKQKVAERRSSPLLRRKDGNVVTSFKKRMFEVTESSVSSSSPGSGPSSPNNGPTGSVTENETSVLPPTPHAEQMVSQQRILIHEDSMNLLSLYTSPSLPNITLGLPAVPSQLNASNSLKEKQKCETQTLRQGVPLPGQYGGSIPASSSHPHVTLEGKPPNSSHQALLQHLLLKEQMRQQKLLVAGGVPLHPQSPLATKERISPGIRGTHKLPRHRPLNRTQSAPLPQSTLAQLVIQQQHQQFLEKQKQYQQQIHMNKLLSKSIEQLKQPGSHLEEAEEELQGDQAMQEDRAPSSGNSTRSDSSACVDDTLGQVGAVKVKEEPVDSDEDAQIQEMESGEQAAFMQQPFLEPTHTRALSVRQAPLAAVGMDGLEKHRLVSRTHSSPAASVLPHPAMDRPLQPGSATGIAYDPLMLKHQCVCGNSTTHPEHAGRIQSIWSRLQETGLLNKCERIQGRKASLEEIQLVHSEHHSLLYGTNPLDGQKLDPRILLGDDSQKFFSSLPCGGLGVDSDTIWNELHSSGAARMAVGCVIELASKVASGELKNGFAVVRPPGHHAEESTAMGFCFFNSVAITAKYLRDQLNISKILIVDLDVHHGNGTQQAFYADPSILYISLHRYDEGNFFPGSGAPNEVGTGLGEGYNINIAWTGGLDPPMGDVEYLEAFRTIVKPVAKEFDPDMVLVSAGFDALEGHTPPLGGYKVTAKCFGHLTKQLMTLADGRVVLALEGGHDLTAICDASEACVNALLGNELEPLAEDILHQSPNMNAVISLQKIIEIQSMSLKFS

VDR = biological target: T1, VDR (Mus musculus, UniProt P48281); assay: Cyp24a1 induction in B16-F10 melanoma cells; format: cell-based; set-up: endogenous in cells; host or cells: mouse B16-F10 melanoma cells; settings: Figure S2A
T1 sequence (P48281 1-422): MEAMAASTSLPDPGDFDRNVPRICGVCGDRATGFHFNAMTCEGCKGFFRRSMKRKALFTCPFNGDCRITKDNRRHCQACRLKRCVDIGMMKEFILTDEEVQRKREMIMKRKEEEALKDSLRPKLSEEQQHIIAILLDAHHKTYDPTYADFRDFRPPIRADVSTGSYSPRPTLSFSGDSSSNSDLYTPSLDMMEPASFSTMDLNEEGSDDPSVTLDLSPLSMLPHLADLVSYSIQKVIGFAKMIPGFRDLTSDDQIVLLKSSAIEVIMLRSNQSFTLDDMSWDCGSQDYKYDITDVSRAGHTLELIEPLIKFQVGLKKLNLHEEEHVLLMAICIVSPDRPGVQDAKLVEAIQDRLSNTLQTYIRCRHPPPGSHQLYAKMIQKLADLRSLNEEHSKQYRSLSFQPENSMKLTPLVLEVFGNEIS
Description: B16-F10 cells are responsive to 1,25D analogues[45] and HDACi[46],[47] and are therefore widely used in preclinical studies of melanoma solid tumor growth and metastases.[48] Although curable when treated early, melanoma is fatal when invasive. The American Cancer Society projected 97,610 new invasive melanoma cases in the US in 2023 and 7990 deaths. Current treatment options include chemotherapy, surgery, immunotherapy, or single agents targeting mutated genes such as B-RAF or C-KIT.[49]
RNA extraction was performed with the FavorPrep tissue total RNA mini kit (FAVORGEN Biotech Corporation FATRK 001) as per manufacturer’s instructions. cDNA was obtained from 1 μg of RNA using 5× All-in-One RT MasterMix (Applied Biological Materials (abm) Inc. G485) and diluted 5 times. qPCR was performed with BrightGreen 2× q-PCR MasterMix (abm MasterMix-LR-XL) on a Roche LightCycler 96 system. Expression of targeted genes was normalized to 18 s.
Figure S2. A. Analysis of Cyp24a1 induction by ZG126, DK406, AM193 along with 1,25D and SAHA as controls in B16-F10 cells. B. Western blots analyzing the effects of 1,25D, SAHA and hybrids on hyperacetylation of tubulin, H3K9 and H3K27 in B16-F10 cells. C. Quantification of the analyses of hyperacetylation in B16-F10 cells of tubulin, H3K9 and H3K27. D. Assessment of cytotoxicity in B16-F10 […]
(1 picture or pasted object on this page, not shown here)

## CCC(CC)(c1ccc(C(=O)NCCCCC(=O)NO)cc1)c1ccc(OCC(O)C(C)(C)C)c(C)n1 (centres unmarked) [ZG-126, 4-(3-(5-(2-Hydroxy-3,3-dimethylbutoxy)-6-methylpyridin-2-yl)pentan-3-yl)-N-(5-(hydroxyamino)-5-oxopentyl)benzamide]
[1]
  histone H3 hyperacetylation at lysine 9 and 27 (H3K9 and H3K27): comparable or superior to AM-193
[1]; SAHA 100 nM
  tubulin acetylation: by far the most efficacious
[2]
  tubulin and histone hyperacetylation: induced higher levels of tubulin and histone hyperacetylation than SAHA
B16-F10 tumors
  Cyp24a1 induction in B16-F10 tumors: robust induction of Cyp24a1
4T1 tumors; BALB/c mice, ZG-126 high dose 5 mg/kg, statistically significant
  reduction in tumor burden: ~50%
4T1 tumors; 1,25D 0.25 μg/kg, SAHA 80 mg/kg, AM-193 0.2 mg/kg, ZG-126 high 5.0 mg/kg
  #Surface metastases (lung): 47
4T1 tumors; ZG-126 low 1.5 mg/kg
  #Surface metastases (lung): 126
4T1 tumors; high-dose ZG-126 (5 mg/kg)
  reduction of surface lung metastases: ~4 fold
In vivo
  MTD: 10 mg/kg
HDAC9
  inhibition of HDAC9: no or very limited inhibition
VDR
  Cyp24a1 induction: mimicked
